# Experimental data: patent publication US4337199A, “Antibiotic β-lactam compounds, production thereof, and their use as antimicrobial agent” (Sanraku-Ocean Co., Ltd., priority 1978, dated 1982)
# Like-named read-outs stand apart in the source and are kept apart here.
# Legend:
# [1] = test system: Alcaligenes faecalis B326; assay: minimum inhibitory concentration, agar dilution assay; format: cell-based; conditions: read-out: minimum inhibitory concentration
# Outline: (§1)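 Two-fold compound dilutions were incorporated into heart infusion agar. Plates were inoculated with overnight Trypto-Soy broth cultures (35 °C, 18-20 h) diluted to about 10^8 cells/ml. After 20 h at 35 °C, MIC was taken as the lowest concentration with no growth.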
# [2] = test system: Sarcina lutea; assay: as above; format: cell-based; conditions: Micrococcus luteus, read-out: minimum inhibitory concentration
# Outline: as §1
# [3] = test system: Comamonas terrigena B-996; assay: as above; format: cell-based; conditions: read-out: minimum inhibitory concentration
# Outline: as §1
# [4] = test system: Staphylococcus epidermidis; assay: as above; format: cell-based; conditions: read-out: minimum inhibitory concentration
# Outline: as §1
# [5] = test system: Bacillus subtilis ATCC 6633; assay: as above; format: cell-based; conditions: read-out: minimum inhibitory concentration
# Outline: as §1
# [6] = test system: Staphylococcus aureus FDA 209P; assay: as above; format: cell-based; conditions: FDA209P, read-out: minimum inhibitory concentration
# Outline: as §1
# [7] = Test for concentration in blood (plasma of mouse, bioassay); format: in vivo; conditions: sc, subcutaneous, 2 mg/mouse, average of five mice
# Experimental: Typical species of the compounds of formula (I-d) were each administered subcutaneously to five mice in a dose of 2 mg. After 5 minutes from the administration, a small amount of blood was periodically drawn from the eyes of the mice into a heparinized capillary tube, and centrifuged. The concentration of the compound in the supernatant liquid (plasma) was determined by a bioassay method using Comamonas terrigena B-996.
# [8] = test system: Staphylococcus aureus Smith strain; assay: Infection treating test; format: in vivo, Staphylococcus aureus (in ddy male mice); conditions: sc, 2 h, mice infected intraperitoneally, 5×10^5 cells per mouse, subcutaneous, two hours after infection, read-out: CD50 (the source's name)
# Experimental: The in vivo activities of the compounds of formula (I-d) were determined by using mice (five per group, ddy male mice, Shizuoka) which had been intraperitoneally infected with Staphylococcus aureus Smith strain in an amount of 5×10^5 cells per mouse. Two hours after the infection, an injection containing a sodium salt of each of the compounds of formula (I-d) was subcutaneously administered to the mice.
# [9] = solubility; format: physicochemical
# [10] = test system: Citrobacter freundii GN 346; assay: minimum inhibitory concentration, agar dilution assay; format: cell-based; conditions: GN346, agar dilution, 35° C., 20 hours, read-out: minimum inhibitory concentration
# Outline: as §1
# [11] = test system: Escherichia coli K-12; assay: as above; format: cell-based; conditions: K12, agar dilution, 35° C., 20 hours, read-out: minimum inhibitory concentration
# Outline: as §1
# [12] = test system: Pseudomonas aeruginosa IFO3445; assay: as above; format: cell-based; conditions: IFO3445, agar dilution, 35° C., 20 hours, read-out: minimum inhibitory concentration
# Outline: as §1
# [13] = test system: Enterobacter sp. E8; assay: as above; format: cell-based; conditions: SP.E8, agar dilution, 35° C., 20 hours, read-out: minimum inhibitory concentration
# Outline: as §1
# [14] = test system: Staphylococcus aureus Russell; assay: as above; format: cell-based; conditions: agar dilution, 35° C., 20 hours, read-out: minimum inhibitory concentration
# Outline: as §1
# [15] = test system: Pseudomonas aeruginosa NCTC10490; assay: as above; format: cell-based; conditions: NCTC10490, agar dilution, 35° C., 20 hours, read-out: minimum inhibitory concentration
# Outline: as §1
# [16] = test system: Enterobacter aerogenes E19; assay: as above; format: cell-based; conditions: Klebsiella aerogenes, E19; agar dilution, 35° C., 20 hours; read-out: minimum inhibitory concentration
# Outline: as §1
# [17] = test system: Proteus mirabilis P6; assay: as above; format: cell-based; conditions: P6, agar dilution, 35° C., 20 hours, read-out: minimum inhibitory concentration
# Outline: as §1
# [18] = test system: Providencia sp. P8; assay: as above; format: cell-based; conditions: SP.P8, agar dilution, 35° C., 20 hours, read-out: minimum inhibitory concentration
# Outline: as §1
# [19] = test system: Serratia marcescens T55; assay: as above; format: cell-based; conditions: T55, agar dilution, 35° C., 20 hours, read-out: minimum inhibitory concentration
# Outline: as §1
# [20] = test system: Serratia marcescens S18; assay: as above; format: cell-based; conditions: S18, agar dilution, 35° C., 20 hours, read-out: minimum inhibitory concentration
# Outline: as §1
# [21] = test system: Proteus rettgeri P7; assay: as above; format: cell-based; conditions: Providencia rettgeri, P7; agar dilution, 35° C., 20 hours; read-out: minimum inhibitory concentration
# Outline: as §1
# [22] = test system: Alcaligenes faecalis A 1; assay: as above; format: cell-based; conditions: A1, agar dilution, 35° C., 20 hours, read-out: minimum inhibitory concentration
# Outline: as §1
# [23] = test system: Proteus vulgaris GN76; assay: as above; format: cell-based; conditions: GN76, agar dilution, 35° C., 20 hours, read-out: minimum inhibitory concentration
# Outline: as §1
# [24] = test system: Enterobacter cloacae 45; assay: as above; format: cell-based; conditions: Enterobacter cloacae, 45; agar dilution, 35° C., 20 hours; read-out: minimum inhibitory concentration
# Outline: as §1
# [25] = test system: Escherichia coli RGN 823; assay: as above; format: cell-based; conditions: RGN823, agar dilution, 35° C., 20 hours, read-out: minimum inhibitory concentration
# Outline: as §1
# [26] = test system: Klebsiella pneumoniae K-13; assay: as above; format: cell-based; conditions: K13, agar dilution, 35° C., 20 hours, read-out: minimum inhibitory concentration
# Outline: as §1
# [27] = test system: Proteus sp. P22; assay: as above; format: cell-based; conditions: agar dilution, 35° C., 20 hours; read-out: minimum inhibitory concentration
# Outline: as §1
# [28] = test system: Staphylococcus aureus Smith; assay: as above; format: cell-based; conditions: agar dilution, 35° C., 20 hours, read-out: minimum inhibitory concentration
# Outline: as §1
# [29] = test system: Gram-positive and Gram-negative bacteria; assay: antibiotic activity (antimicrobial spectrum); format: cell-based; conditions: comparison in words
# Experimental: The minimum inhibitory concentrations of the compounds of formula (I-a-1) or (I-b-1) in Tables I-1 to I-7 and the known compounds in Table I-8 on the various microorganisms shown in the above tables were measured by an agar dilution assay method using a brain heart infusion agar medium "Difco" (a product of Difco Laboratories Inc.)
# A sample of the test compound was dissolved in sterile distilled water and diluted to prepare a two-fold dilution series of the compound solution. In a petri plate of 9 cm diameter, 1 ml of the compound solution was added to 9 ml of molten sterile heart infusion agar medium (Difco Laboratories Inc.) at about 60° C. to prepare the compound-containing agar plate. An overnight culture of each test organism indicated in the above table which was prepared by stationary cultivation in Trypto-Soy broth (Eiken Chemi. Co., Ltd.) at 35° C. for 18 to 20 hours, was diluted with the Trypto-Soy broth to give approximately 10^8 cells/ml and the diluted inoculum was inoculated onto the compound-containing agar plates. After cultivating the plates at 35° C. for 20 hours, the growth of the organism was observed. The minimum concentration of the compound at which no growth of the microorganism was noted was determined, and defined as the minimum inhibitory concentration of the test compound.
# [30] = agar dilution, 35° C., 20 hours
# [31] = B996, agar dilution, 35° C., 20 hours
# [32] = ATCC6633, agar dilution, 35° C., 20 hours
Compound,MIC [10],MIC [11],MIC [12],MIC [13],MIC [14],MIC [15],"MIC [2, 30]",MIC [16],"MIC [3, 31]",MIC [17],MIC [18],MIC [19],MIC [20],MIC [21],MIC [22],"MIC [4, 30]",MIC [23],MIC [24],"MIC [5, 32]","MIC [6, 30]",also measured
"CCCCSC1=C(C(=O)[O-])N2C(=O)C(CC)C2C1.[Na+] (stereo not shown) [Example 68, Sodium 3-n-butylthio-6-ethyl-7-oxo-1-azabicyclo[3.2.0]hept-2-ene-2-carboxylate]",,,,,,,,,,,,,,,,,,,,,"MIC ([1]; B326, 20 h): 15 µg/mL; MIC ([2]; 20 h): 1.88 µg/mL; MIC ([3]; B996, 20 h): 0.24 µg/mL; MIC ([4]; 20 h): 0.12 µg/mL; MIC ([5]; ATCC6633, 20 h): 3.75 µg/mL; MIC ([6]; 20 h): 0.24 µg/mL"
CC(=O)NCCSC1=C(C(=O)O)N2C(=O)[C@H](C(C)O)[C@H]2C1 (stereo partly shown) [PS-3A . Na],,,,,,,,,,,,,,,,,,,,,half-life ([7]; read-out: Half period): 12 min; Cmax ([7]; read-out: Maximum concentration): 52 µg/mL; ED50 [8]: 4 mg/kg
"CC(=O)NCCSC1=C(C(=O)O)N2C(=O)[C@H](C(C)O)[C@H]2C1 (stereo partly shown) [PS-3A, 3-(2-acetamidoethylthio)-6-(1-hydroxyethyl)-7-oxo-1-azabicyclo[3.2.0]hept-2-ene-2-carboxylic acid, reference compound]",10 µg/mL,2.5 µg/mL,20.1 µg/mL,5 µg/mL,1.25 µg/mL,20.1 µg/mL,0.63 µg/mL,20.1 µg/mL,0.08 µg/mL,20.1 µg/mL,5 µg/mL,20.1 µg/mL,10 µg/mL,20.1 µg/mL,1.25 µg/mL,2.5 µg/mL,20.1 µg/mL,10 µg/mL,1.25 µg/mL,0.31 µg/mL,Solubility in acetone ([9]; acetone): substantially insoluble in acetone; Solubility in water ([9]; water): Readily soluble in water; MIC [25]: 5 µg/mL; MIC [26]: 10 µg/mL; MIC [27]: 20.1 µg/mL; MIC [28]: 1.25 µg/mL
"CCC1C(=O)N2C(C(=O)O)=C(SCCNC(C)=O)CC12 (stereo not shown) [PS-5, 3-(2-acetaminothylthio)-6-ethyl-7-oxo-1-azabicyclo-[3.2.0]hept-2-ene-2-carboxylic acid, reference compound]",3.13 µg/mL,1.56 µg/mL,25 µg/mL,1.56 µg/mL,0.1 µg/mL,12.5 µg/mL,0.05 µg/mL,3.13 µg/mL,0.013 µg/mL,6.25 µg/mL,3.13 µg/mL,6.25 µg/mL,6.25 µg/mL,12.5 µg/mL,0.39 µg/mL,0.1 µg/mL,12.5 µg/mL,6.25 µg/mL,0.1 µg/mL,0.025 µg/mL,antibiotic activity (in words) [29]: better antibiotic activity than cephazolin (CEZ); MIC [25]: 3.13 µg/mL; MIC [26]: 6.25 µg/mL; MIC [27]: 25 µg/mL; MIC [28]: 0.1 µg/mL
"CC(=O)NCCSC1=C(C(=O)O)N2C(=O)C(C(C)C)C2C1 (stereo not shown) [PS-6, 3-(2-acetamidoethylthio)-6-isopropyl-7-oxo-1-azabicyclo[3.2.0]hept-2-ene-2-carboxylic acid, reference compound]",12.5 µg/mL,6.25 µg/mL,50 µg/mL,6.25 µg/mL,0.2 µg/mL,50 µg/mL,0.39 µg/mL,25 µg/mL,0.1 µg/mL,12.5 µg/mL,6.25 µg/mL,50 µg/mL,25 µg/mL,6.25 µg/mL,1.56 µg/mL,0.39 µg/mL,12.5 µg/mL,25 µg/mL,0.78 µg/mL,0.1 µg/mL,antibiotic activity (in words) [29]: better antibiotic activity than cephazolin (CEZ); MIC [25]: 6.25 µg/mL; MIC [26]: 25 µg/mL; MIC [27]: 25 µg/mL; MIC [28]: 0.2 µg/mL
"CCCCSC1=C(C(=O)O)N2C(=O)C(C(C)C)C2C1 (stereo not shown) [R1 CH3, R21 (CH2CH3)3]",,,,,,,7.5 µg/mL,,0.48 µg/mL,,,,,,,0.12 µg/mL,,,15 µg/mL,0.48 µg/mL,"MIC ([1]; B326, agar dilution, 35° C., 20 hours): 20 µg/mL"
